Results: patent US12116364B2, “Heteroaryl compounds and uses thereof” (APRINOIA THERAPEUTICS INC., priority 2018, dated 2024)

Assays:
[1] = target: [11C]PBB3 binding sites (tau aggregates) in temporal cortex homogenates of an Alzheimer's disease patient (Homo sapiens, UniProt P10636); assay: Fluorescence competitive binding assay in vitro ([11C]PBB3 displacement in Alzheimer's disease temporal cortex homogenates); details: 5 nM [11C]PBB3, AD temporal cortex homogenate (100 μg tissue), 30 min, room temperature
Experimental: Fluorescence competitive binding assay in vitro was performed as reported previously1. Frozen tissues derived from the temporal cortex of an Alzheimer's disease patient was homogenized in 50 mM Tris-HCl buffer, pH 7.4, containing protease inhibitor cocktail (cOmplete™, EDTA-free; Roche), and stored at −80° C. pending analyses. To assay radioligand binding with homologous or heterologous blockade, these homogenates (100 μg tissue) were incubated with 5 nM [11C]PBB3 (molar radioactivity: 100-150 GBq/μmol) in the absence or presence of unlabeled PBB3 at varying concentrations ranging from 10-11-106 M in Tris-HCl buffer containing 10% ethanol, pH 7.4, for 30 min at room temperature. Non-specific binding of [11C]PBB3 was determined in the presence of 5×10^−7 M PBB3. Samples were run once only and specific radioligand binding was determined as pmol/g tissue. Inhibition constant (Ki) and percentage of displacement were determined by using non-linear regression to fit a concentration-binding plot to one-site and two-site binding models derived from the Cheng-Prusoff equation with GraphPad Prism version 6.0 (GraphPad Software), followed by F-test for model selection. In a one-site homologous blockade model, dissociation constant (Kd) was calculated from homologous competitive binding using this function: Kd=Ki=IC50−Radioligand
where IC50 and [Radioligand] stand for the concentration of the competitor inducing 50% inhibition and radioligand concentration, respectively. Experiments with [^11C]PBB3 and unlabeled PBB3 were performed in a dimly lit condition to avoid photoconversion of the compounds. Table B lists Ki values of exemplary test compounds.

[2] = target: recombinant tau proteins (human Tau, heparin-fiberized) (Homo sapiens, UniProt P10636); assay: Fluorescence quantitative Tau binding assay in vitro; details: 0.04 uM fiberized recombinant tau, 30 mM Tris pH 7.5, 1 h, fluorometric saturation curve
Experimental: Expression and Purification of Human Tau Protein
• pET41a-Tau wild type • One Shot® BL21(DE3) Chemically Competent E. coli (Invitrogen, C600003) • Kanamycin sulfate (Sangon Biotech, A506636) • IPTG (Sangon Biotech, A100487) • Pipes buffer (100 mM Pipes, pH6.8, 1 mM EGTA, 1 mM MgSO4) • Hepes buffer (25 mM Hepes, pH7.2, 0.1 mM EDTA, 0.5 mM DTT, 100 mM NaCl) • Q-Sepharose Fast Flow column (GE Healthcare, 17-0510-01) • SP-Sepharose Fast Flow column (GE Healthcare, 17-0729-01) Procedures: Protein Expression: • Step 1: Transform 1 uL expression plasmid pET41a-tau wt into one One Shot® BL21(DE3) Chemically Competent E. coli, on ice 30 min. • Step 2: 42° C. heat shock 90 second and on ice 2 min, 37° C. recovery for 30 min, Plate small amount on LB(Kan+) agar plate incubate overnight at 37° C. • Step 3: Pick and resuspend a single colony in 200 mL liquid culture with 50 ug/mL Kanamycin to produce a starter culture. Inoculate starter culture and shake 200 rpm overnight at 37° C. • Step 4: Add 100× dilution Starter into fresh culture medium (Kan+) shake 200 rpm at 37° C. until OD600=0.8. • Step 5: Add IPTG (final conc. 1 mM) and express protein for 3 hr. • Step 6: Collect cell pellet and store at −80° C. for purification. Protein Purification: • Step 1: Cell pellet was resuspended in Pipes buffer. • Step 2: Sonication and centrifugation (15,000 rpm, 15 min at 4° C. • Step 3: The supernatant was placed in a boiling water bath for 20 min and subsequently centrifuged. The heat-stable proteins in the supernatant were loaded onto a Q-Sepharose Fast Flow column (20 mL) • Step 4: The flow through containing tau was loaded onto SP-Sepharose Fast Flow column (10 mL), eluted with Pipes buffer containing 0.2M NaCl. • Step 6: Fractions containing tau were pooled, concentrated and dialyzed against Hepes buffer, stored at −80° C. • Step 7: Reload SP-Flow through into Q-Sepharose Fast Flow column (20 mL) and SP-Sepharose Fast Flow column (10 mL) again, eluted with Pipes buffer containing 0.2M NaCl. • Step 8: Fractions containing tau were pooled, concentrated and dialyzed against Hepes buffer, stored at −80° C. Repeat step 6-7 twice, Collect all above all elution product and concentrated. Biological Assays Fluorescence Quantitative Tau Binding Assay In Vitro
2 uM of recombinant tau proteins and 15 uM of heparin were fiberized in 30 mM Tris (pH 7.5) buffer by overnight incubation at 37° C. 0.04 uM of recombinant tau proteins which was diluted in 30 mM Tris buffer (pH 7.5) was then reacted with test compounds (containing 1% DMSO) for 1 h. Regarding the fluorometric data, the binding saturation curve was created and the parameter estimation method was conducted using Prism software (GraphPad). Kd values were determined for each of test compounds. Table A lists Kd values of exemplary test compounds.

[3] = test system: tau aggregates (tangles/threads) in temporal cortex sections of an AD brain; assay: Histological examination by fluorescence staining of AD brain sections; type: binding, human; details: 0.001% (W/V) compound in 50% ethanol, 30 min, relative to PBB3; for Fluorescent binding Tangle: score for tangles; for Fluorescent binding Thread: score for threads
Experimental: The fluorescence binding assessment was performed as reported previously^1. For fluorescence labeling with PBB3 and test compounds, deparaffinized temporal cortex sections of an AD brain were incubated in 50% ethanol containing 0.001% (W/V) of PBB3 or test compound at room temperature for 30 min. The samples were rinsed with 50% ethanol for 5 min, dipped into distilled water twice for 3 min, and mounted in non-fluorescent mounting media ([…]; Vector Laboratories). Fluorescence images were captured using a DM4000 microscope (Leica) equipped with a custom filter cube for PBB3 (excitation band-pass at 391-437 nm and suppression low-pass with 458 nm cutoff).

Sequence of [11C]PBB3 binding sites (tau aggregates) in temporal cortex homogenates of an Alzheimer's disease patient (P10636 623-695 limits assumed): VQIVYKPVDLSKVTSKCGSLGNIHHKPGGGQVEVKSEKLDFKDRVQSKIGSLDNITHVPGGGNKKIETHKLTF
Sequence of recombinant tau proteins (human Tau, heparin-fiberized) (P10636 whole entry): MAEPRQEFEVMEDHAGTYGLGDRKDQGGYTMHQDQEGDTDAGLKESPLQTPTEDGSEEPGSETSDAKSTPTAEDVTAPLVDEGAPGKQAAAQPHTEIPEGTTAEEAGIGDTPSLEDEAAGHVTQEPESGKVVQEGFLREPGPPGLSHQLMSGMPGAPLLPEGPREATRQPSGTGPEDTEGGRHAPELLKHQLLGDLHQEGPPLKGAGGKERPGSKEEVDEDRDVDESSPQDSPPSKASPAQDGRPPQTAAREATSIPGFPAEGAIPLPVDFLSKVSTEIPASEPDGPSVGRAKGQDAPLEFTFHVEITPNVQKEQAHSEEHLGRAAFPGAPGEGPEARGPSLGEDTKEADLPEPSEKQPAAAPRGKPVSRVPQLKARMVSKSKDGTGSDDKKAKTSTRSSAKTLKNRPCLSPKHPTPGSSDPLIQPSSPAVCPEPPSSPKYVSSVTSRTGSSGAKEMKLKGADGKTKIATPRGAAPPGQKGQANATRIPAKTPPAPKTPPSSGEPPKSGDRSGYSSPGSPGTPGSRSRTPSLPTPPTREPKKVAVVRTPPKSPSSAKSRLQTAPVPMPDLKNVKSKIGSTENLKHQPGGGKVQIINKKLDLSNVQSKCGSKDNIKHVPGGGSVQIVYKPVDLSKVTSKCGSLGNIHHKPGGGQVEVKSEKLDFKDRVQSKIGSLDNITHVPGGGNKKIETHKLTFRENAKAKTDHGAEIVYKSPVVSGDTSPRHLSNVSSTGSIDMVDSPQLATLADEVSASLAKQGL

Row | Ki [1] [nM] | Kd [2] [nM] | Fluorescent binding Tangle [3] | Fluorescent binding Thread [3] | SMILES
1 | 5 | 520 | 1 | 0.5 | COc1ccc2nc(-c3ccc(-c4ccc(N(C)C)nc4F)cc3)cn2c1 [Compound Q, 6-Fluoranyl-5-[4-(6-methoxyimidazo[1,2-a]pyridin-2-yl)phenyl]-N,N-dimethyl-pyridin-2-amine]
2 | 140 | 2510 | 2.5/2.5 | 2.5/2.5 | CNc1ccc(-c2cnc(-c3cc4ccncc4[nH]3)cc2F)cn1 [Compound T, 5-[4-Fluoranyl-6-(1H-pyrrolo[2,3-c]pyridin-2-yl)pyridin-3-yl]-N-methyl-pyridin-2-amine]
3 | – | 1510 | – | – | COc1ccc2nc(-c3ccc(-c4ccc(N(C)C)nc4)nc3F)cn2c1 [Compound U, 6-Fluoro-5-(6-methoxyimidazo[1,2-a]pyridin-2-yl)-N,N-dimethyl-2,3′-bipyridin-6′-amine]
4 | 5 | 1450 | 3/3 | 3/3 | CNc1ncc(-c2cc(F)c(-c3nc4ccc(N)cc4s3)cn2)cn1 [Compound Z, 2-(4-Fluoro-6-(2-(methylamino)pyrimidin-5-yl)pyridin-3-yl)benzo[d]thiazol-6-amine]
5 | – | 3500 | – | – | CN(C)c1ccc(-c2ccc(-c3nc4ccncc4n3CCF)cc2)cn1 [Compound K, 5-[4-[3-(2-fluoranylethyl)imidazo[4,5-c]pyridin-2-yl]phenyl]-N,N-dimethyl-pyridin-2-amine]
6 | 10 | 280 | 2 | 0.5 | CN(C)c1ccc(-c2ccc(-c3cc4ccn(CC(O)CF)cc-4n3)cc2)cn1 (centres unmarked) [Compound G, 1-(2-(4-(6-(Dimethylamino)pyridin-3-yl)phenyl)-6H-pyrrolo[2,3-c]pyridin-6-yl)-3-fluoropropan-2-ol]
7 | 2 | 990 | 3/3 | 3/3 | CNc1ccc(-c2ccc(-c3cc4cc(F)ncc4[nH]3)cc2)cn1 [Compound B, 5-(4-(5-Fluoro-1H-pyrrolo[2,3-c]pyridin-2-yl)phenyl)-N-methylpyridin-2-amine]
8 | 15 | 2630 | 2.5 | 2 | CNc1ccc(-c2ccc(-c3cc4cnccc4[nH]3)cc2)cn1 [Compound M, 5-(4-(1H-Pyrrolo[3,2-c]pyridin-2-yl)phenyl)-N-methylpyridin-2-amine]
9 | 20 | 260 | 0.5 | 0 | CNc1ccc(-c2ccc(-c3cn4cc(OCC(O)CF)ccc4n3)cc2)cn1 (centres unmarked) [Compound N, 1-Fluoro-3-(2-(4-(6-(methylamino)pyridin-3-yl)phenyl)imidazo[1,2-a]pyridin-6-yloxy)propan-2-ol]
10 | 1 | 690 | 3/3 | 3/3 | CNc1ccc(-c2ccc(-c3cc4ccncc4[nH]3)cc2)c(F)n1 [Compound D, 5-(4-(1H-Pyrrolo[2,3-c]pyridin-2-yl)phenyl)-6-fluoro-N-methylpyridin-2-amine]
11 | 5 | 540 | 2.5 | 1.5 | Nc1ccc(-c2ccc(-c3cc4cnccc4[nH]3)cc2)cc1F [Compound L, 3-Fluoro-4′-(1H-pyrrolo[3,2-c]pyridin-2-yl)biphenyl-4-amine]
12 | 7.5 | 3570 | 2.5/2.5 | 2.5/2.5 | CNc1ccc(-c2ccc(-c3nc4ccc(NCC(O)CF)cc4s3)nc2)cn1 (centres unmarked) [Compound V, 1-Fluoranyl-3-[[2-[5-[6-(methylamino)pyridin-3-yl]pyridin-2-yl]-1,3-benzothiazol-6-yl]amino]propan-2-ol]
13 | 25 | 250 | 2 | 1.5 | CNc1ccc(-c2ccc(-c3cc4ccnc(O)c4[nH]3)cc2)cn1 [Compound C, 2-(4-(6-(Methylamino)pyridin-3-yl)phenyl)-1H-pyrrolo[2,3-c]pyridin-7-ol]
14 | 5 | 890 | 3/3 | 3/3 | CNc1ccc(-c2ccc(-c3nc4ccc(NCC(O)CF)cc4s3)cc2)cn1 (centres unmarked) [Compound J, 1-Fluoranyl-3-[[2-[4-[6-(methylamino)pyridin-3-yl]phenyl]-1,3-benzothiazol-6-yl]amino]propan-2-ol]
15 | 5 | 800 | 2 | 1.5 | Nc1ccc2nc(-c3ccc(-c4ccc(NCCF)nc4)cc3)sc2c1 [Compound I, 2-(4-(6-((2-Fluoroethyl)amino)pyridin-3-yl)phenyl)benzo[d]thiazol-6-amine]
16 | – | 340 | – | – | COc1ccc(-c2ccc(-c3cc4ccn(CCO)cc-4n3)cc2)cc1 [Compound F, 2-(2-(4′-Methoxybiphenyl-4-yl)-6H-pyrrolo[2,3-c]pyridine-6-yl)ethanol]
17 | 10 | 270 | 1.5/1.5 | 1.5/1.5 | CN(C)c1ccc(-c2ccc(-c3cn4cc(OCC(O)CF)ccc4n3)cc2)cn1 (centres unmarked) [Compound O, 1-(2-(4-(6-(Dimethylamino)pyridin-3-yl)phenyl)imidazo[1,2-a]pyridin-6-yloxy)-3-fluoropropan-2-ol]
18 | – | 90 | – | – | Nc1ccc(-c2ccc(-c3nc4ccncc4o3)cc2)cn1 [Compound H, 5-(4-(Oxazolo[5,4-c]pyridin-2-yl)phenyl)pyridin-2-amine]
19 | – | 170 | – | – | CN(C)c1ccc(-c2ccc(-c3nc4ccc(NCC(O)CF)cc4s3)c(F)n2)cn1 (centres unmarked) [Compound X, 1-[[2-[6-[6-(dimethylamino)pyridin-3-yl]-2-fluoranyl-pyridin-3-yl]-1,3-benzothiazol-6-yl]amino]-3-fluoranyl-propan-2-ol]
20 | – | > 10000 | – | – | CNc1ncc(-c2ccc(-c3nc4ccc(N)cc4s3)c(F)n2)cn1 [Compound Y, 2-[2-Fluoranyl-6-[2-(methylamino)pyrimidin-5-yl]pyridin-3-yl]-1,3-benzothiazol-6-amine]
